# Results: patent US20190248888A1, “METHODS OF LOWERING BLOOD GLUCOSE LEVELS” (Regeneron Pharmaceuticals, Inc., priority 2016, published 2019)
# Key:
# [1] = test system: αTC1-6 glucagonoma cells; test: αTC1-6 cell proliferation (CellTiter 96 Aqueous), WT and Slc38a5 KD; type: cell-based; conditions: 4 mM in culture medium, 5 days; for cell proliferation, Slc38a5 knock-down αTC1-6 cells: compared with wildtype cells
# From the text: Slc38a5 KO αTC1 clones were generated using CRISPR-Cas9 techniques. Target sequences (sgRNAs) were designed using an online sgRNA design tool from DNA2.0 (DNA2.0). The sgRNAs were cloned into the pSpCas9-2A-GFP-Puro vector using BsmBl (NEB) and αTC1 cells were transfected with Lipofectamine 2000 according to the manufacturers' instructions (Life Technologies). Clones with deletion mutations were verified by PCR amplifications, TaqMan analysis and RNA sequencing. […] Both WT and Slc38a5 KD αTC1/6 cells were prepared in an assay medium (MEM from Gibco), supplemented with 5% fetal bovine serum (FBS), 10 mM HEPES, and 100 IU/ml penicillin and 100 μg/ml streptomycin) and seeded on 96-well plates at a density of ˜15,000 cells per well in 4-6 replicates. Selected amino acids were added to the final concentration of 4 mM. Cell proliferations were measured every day using the CellTiter 96 Aqueous Cell Proliferation Assay (Promega) according to the manufacturer's instructions. Briefly, 20 μl of assay reagent was added to each well and the cell plates were incubated in a tissue culture incubator for 2.5 hours. Absorbance was measured at 490 nm on a plate reader SpectraMax Plus (Molecular Devices). Values were corrected for background absorbance using the averages of the wells containing assay medium only and plotted in Prism (GraphPad).
# [2] = test system: C57BL/6 mice; test: GCGR antibody with or without rapamycin in C57BL/6 mice: blood chemistry, islet cell mass; conditions: GCGR-antibody and rapamycin-treated mice
# Procedure: C57BL/6 mice (males, 10 weeks of age, Taconic) were housed (5 mice per cage) in a controlled environment (12-h light/dark cycle, 22±1° C., 60-70% humidity) and fed ad libitum with standard chow (Purina Laboratory Rodent Diet 5001, LabDiet). Mice were assigned to study groups (n=10) based on baseline blood glucose levels. Mice were injected subcutaneously (sc) with GCGR antibody (3 mg/kg) or the control antibody (3 mg/kg) alone or in combination with rapamycin (10 mg/kg) or the vehicle. For the duration of the study, GCGR or control antibody was administered once weekly, whereas rapamycin or the vehicle was administered daily. Blood was collected from the tail for glucose measurements without fasting. Plasma samples were collected via submandibular bleeds at baseline and on day 21 after dosing for analysis of hormones and total amino acid levels. Seven days after the last antibody administration (day 21), mice were sacrificed, organs weighed and pancreata collected.
# Pancreas α- and β-cell mass was measured as described elsewhere (Okamato et al., 2015, Endocrinology 156:2781-2794). α- and PP cell mass were determined using anti-somatostatin antibody (Sigma-Aldrich; #SAB4502861) and anti-pancreatic polypeptide antibody (Sigma-Aldrich; #SAB2500747). For quantifying Slc38a5 positive α-cells, pancreas sections were stained with human anti-glucagon and rabbit anti-Slc38a5 (Abcam; #ab72717) primary antibodies, and Alexa Fluor 488 labeled donkey anti-rabbit (Jackson ImmunoResearch; #711-545-152) and Alexa Fluor 594 donkey anti-human (Jackson ImmunoResearch; #709-585-149) secondary antibodies. For quantifying proliferating cells, Alexa Fluor 647 labeled anti-Ki67 (Abcam; #ab194724) was used in combination with anti-glucagon and anti-Slc38a5 antibodies. Slides were scanned using a Zeiss Axio Scan.Z1 slide scanner (Zeiss) and the images were analyzed using the Halo (Indica Labs).
# Blood glucose was determined using ACCU-CHEK® Compact Plus (Roche Diagnostics). Plasma glucagon and insulin levels were determined using glucagon and mouse insulin ELISA (Mercodia). Plasma total amino acid levels were measured using L-Amino Acid Quantification Kit (Sigma-Aldrich).
Compound,"rate of cell proliferation, wildtype αTC1-6 cells [1]","cell proliferation, Slc38a5 knock-down αTC1-6 cells [1]",muscle mass [2]
C[C@H](N)C(=O)O [alanine],significantly increased,to a much lesser extent,
NC(=O)CC[C@H](N)C(=O)O [glutamine],significantly increased,to a much lesser extent,
"CO[C@H]1C[C@@H]2CC[C@@H](C)[C@@](O)(O2)C(=O)C(=O)N2CCCC[C@H]2C(=O)O[C@H]([C@H](C)C[C@@H]2CC[C@@H](O)[C@H](OC)C2)CC(=O)[C@H](C)/C=C(\C)[C@@H](O)[C@@H](OC)C(=O)[C@H](C)C[C@H](C)/C=C/C=C/C=C/1C [rapamycin, reference compound]",,,small reduction
